# Measured values taken from ChEMBL document CHEMBL3860091, “Synthesis and activity of newly designed aroxyalkyl or aroxyethoxyethyl derivatives of piperazine on the cardiovascular and the central nervous systems” (Bioorg Med Chem Lett, 2016).
# Experiments:
# [1] = Antidepressant-like activity in mouse assessed as immobility time at 5 mg/kg, ip by tail suspension test (reference value: 154.2 +/- 10.2 sec); type: functional, organism-based
# [2] = Antidepressant-like activity in mouse assessed as immobility time at 10 mg/kg, ip by tail suspension test (reference value: 154.2 +/- 10.2 sec); type: functional, organism-based
# [3] = biological target: T1, Adrenergic receptor alpha-1 (Rattus norvegicus, UniProt P15823+P23944+P43140); assay: Antagonist activity at alpha1 adrenergic receptor in rat aorta assessed as inhibition of phenylephrine-induced aortic contraction
# T1 sequence (P15823 whole entry): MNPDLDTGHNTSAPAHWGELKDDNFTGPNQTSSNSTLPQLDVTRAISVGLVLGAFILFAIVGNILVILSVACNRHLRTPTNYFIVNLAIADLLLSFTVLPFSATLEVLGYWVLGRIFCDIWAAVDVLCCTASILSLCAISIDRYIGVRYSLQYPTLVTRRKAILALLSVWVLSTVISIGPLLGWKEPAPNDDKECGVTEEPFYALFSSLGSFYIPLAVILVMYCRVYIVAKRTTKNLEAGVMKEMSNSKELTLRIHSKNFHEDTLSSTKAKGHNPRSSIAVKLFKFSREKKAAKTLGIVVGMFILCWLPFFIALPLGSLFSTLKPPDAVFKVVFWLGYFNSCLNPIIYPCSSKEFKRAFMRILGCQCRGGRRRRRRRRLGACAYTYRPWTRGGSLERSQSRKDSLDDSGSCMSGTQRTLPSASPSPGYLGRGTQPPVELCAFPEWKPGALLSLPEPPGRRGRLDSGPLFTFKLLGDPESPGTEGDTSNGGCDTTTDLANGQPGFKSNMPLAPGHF
# T1 sequence (P23944 whole entry): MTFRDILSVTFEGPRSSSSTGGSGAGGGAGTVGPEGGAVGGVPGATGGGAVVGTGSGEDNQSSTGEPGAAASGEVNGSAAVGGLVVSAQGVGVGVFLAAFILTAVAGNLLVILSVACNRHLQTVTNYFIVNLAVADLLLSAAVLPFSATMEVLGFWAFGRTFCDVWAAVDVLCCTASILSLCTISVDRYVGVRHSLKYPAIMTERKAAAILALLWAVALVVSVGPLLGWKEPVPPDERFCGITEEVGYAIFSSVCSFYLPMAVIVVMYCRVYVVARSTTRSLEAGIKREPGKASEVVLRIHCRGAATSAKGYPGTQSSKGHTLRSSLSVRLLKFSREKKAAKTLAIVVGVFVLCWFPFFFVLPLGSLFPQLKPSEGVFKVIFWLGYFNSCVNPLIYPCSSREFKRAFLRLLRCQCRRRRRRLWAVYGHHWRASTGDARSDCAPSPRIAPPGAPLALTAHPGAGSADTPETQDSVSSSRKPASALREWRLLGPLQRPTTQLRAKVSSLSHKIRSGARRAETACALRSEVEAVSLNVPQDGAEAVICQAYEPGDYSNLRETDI
# T1 sequence (P43140 whole entry): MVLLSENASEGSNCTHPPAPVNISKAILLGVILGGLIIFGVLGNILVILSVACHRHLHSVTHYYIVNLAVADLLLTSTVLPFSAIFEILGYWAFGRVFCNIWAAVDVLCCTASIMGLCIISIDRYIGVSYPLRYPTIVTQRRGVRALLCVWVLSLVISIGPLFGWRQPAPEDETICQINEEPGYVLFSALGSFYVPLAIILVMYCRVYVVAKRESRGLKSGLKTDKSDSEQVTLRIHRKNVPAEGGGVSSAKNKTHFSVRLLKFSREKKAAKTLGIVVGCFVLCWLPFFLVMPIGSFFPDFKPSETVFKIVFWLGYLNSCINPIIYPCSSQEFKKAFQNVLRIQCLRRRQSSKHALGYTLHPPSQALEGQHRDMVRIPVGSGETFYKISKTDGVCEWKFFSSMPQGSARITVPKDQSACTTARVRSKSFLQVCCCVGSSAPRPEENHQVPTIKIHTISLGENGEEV
# Rattus norvegicus = species on record: Rattus norvegicus; assay: Selectivity ratio of Ki for rat brain cerebral cortex alpha2 adrenergic receptor to Ki for rat brain cerebral cortex alpha1 adrenergic receptor
# [4] = biological target: T1, Adrenergic receptor alpha-1; assay: Displacement of [3H]prazosin from alpha1 adrenergic receptor in rat brain cerebral cortex; type: tissue-based
Structure (SMILES),TIME [1] [h],TIME [2] [h],pA2 [3],Ratio Ki (Rattus norvegicus),Ki [4] [nM]
CN(C)CCCN1c2ccccc2CCc2ccccc21,0.0363,0.0283,–,–,–
COc1ccccc1N1CCN(CCCOc2c(C)cccc2C)CC1.Cl,–,–,8.807,142,2.4
COc1ccccc1N1CCN(CCCOc2cccc(C)c2C)CC1.Cl,–,–,8.534,13.3,2.8
